Measurements as given in publication PMC8307506, “Identification of Dihydromyricetin and Metabolites in Serum and Brain Associated with Acute Anti-Ethanol Intoxicating Effects in Mice” (International Journal of Molecular Sciences, 2021).
Like-named read-outs stand apart in the source and are kept apart here.

Columns and labels:
[1] = Serum pharmacokinetics of DHM after PO and IP administration; type: in vivo, mice; conditions: for Tmax / half-life / Cmax / AUC(0-t): C57BL/6J, mouse, serum; for half-life: read-out: Serum T1/2 (converted); for IP AUC0→24 relative to PO AUC0→24: DHM 50 mg/kg; for Cmax / AUC(0-t): 50 mg/kg; for AUC(0-t): read-out: Serum AUC0→24
Procedure: Eight-week-old male and female C57BL/6J mice (Jackson’s Laboratories, Bar Harbor, ME, USA) were housed 4 mice to a cage (separated by sex) and maintained on 12-h light, 12-h dark cycles (lights on at 0700 h) in the animal facility at the Department of Animal Sciences, Rutgers University. Following 1-week acclimation, animals were given ad libitum access to water and a polyphenol-free diet (PFD; 3.82 kcal/g, 10% fat, 20% protein, 70% carbohydrate; D12450H; Research Diets, Inc., New Brunswick, NJ, USA) for at least 10 days. For PK studies, after an overnight fast, mice were administered 50 mg/kg DHM (dissolved in 0.9% saline with 10% DMSO) by either IP injection or oral gavage. Oral gavage was performed using single-use, sterile plastic feeding tubes for mice (20 ga × 30 mm; cat# FTP-20-30, Instech Laboratories, (Plymouth Meeting, PA, USA). Mice were deeply anesthetized with 5% isoflurane mixed with oxygen, and blood was collected by cardiac puncture. Following cardiac puncture, animals were exsanguinated and transcardial perfusion with 0.9% saline was performed to ensure blood removal from the brain tissue. Blood and brain samples were collected from a total of 85 mice at 0.25, 0.75, 1.5, 3, 6, 12, 24 h (3–4 mice for each sex and timepoint). Tissues were immediately homogenized with 0.2% formic acid at 1:2 (w/v), and frozen at −80 °C until analysis. Blood was centrifuged at 3000× g for 10 min at 4 °C to isolate serum. For efficacy studies, mice (n = 8/sex) were fasted at 5 h prior to Ethanol gavage 5 g/kg (37% Ethanol in water). DHM 50 mg/kg IP (dissolved in 0.9% saline with 10% DMSO) was administered at 0, 15, 45, 90 and 180 min prior to Ethanol oral gavage. Each mouse was tested at each time point 7 days apart over 6-week period. At the time of Ethanol gavage, mice were placed in oversized conical holders (L: 152 mm X W: 37 mm) and observed for ability to return upright upon being placed in a supine position. Duration of LORR was determined by ability to return upright 3 times within 30 s. To determine whether ethanol-induced tolerance developed, one week (Week 1; Baseline) prior to the 6-week repeated DHM dosing study all mice were oral dose with ethanol (5 g/kg) without any IP injection and LORR was measured. Mice were then re-tested in a similar fashion with oral ethanol 1 week after the DHM 6-week period (Week 8; Post). […] All animal studies were approved by the Institutional Animal Care and Use Committee of Rutgers University (Bello; PROTO999900014, OLAW #A3262-01, 15 March 2017) and complied with NIH Guide for the Care and Use of Laboratory Animals.
All serum samples were stored at −80 °C and conditioned to room temperature prior to analysis. An aliquot of 100 µL of serum, 20 µL 4M HCl, and 50 µL of internal standard (IS) solution (417 ng/mL isoquercetin in EtOAc) were combined in an Eppendorf tube. An aliquot of 500 µL of EtOAc was added and samples were vortexed for 30 s. Samples were then centrifuged at 3000× g for 2 min and the supernatant transferred to a glass vial. Samples were extracted 2 more times with EtOAc and the supernatant added to the corresponding vial containing 10 µL of 2% ascorbic acid in methanol (MeOH). Samples were then dried under vacuum, reconstituted with 100 µL of 45% MeOH in water with 0.1% formic acid (FA), centrifuged at 16,000× g for 10 min and transferred to an HPLC vial for analysis.
An Agilent 1290 Infinity II UPLC system interfaced with an Agilent 6470 Triple Quadrupole Mass Spectrometer with an electrospray ionization source (Agilent Technology, Palo Alto, CA, USA) was used for sample analysis. An Waters Acquity UPLC BEH C8 column (2.1 × 150 mm, 1.7 μm) (Milford, MA, USA) column with a VanGuard Acquity C8 guard column (2.1 × 5 mm, 1.7 μm) (Milford, MA, USA) was used for chromatographic separation. The binary mobile phases consisted of water with 0.1% FA (phase A) and acetonitrile (ACN) with 0.1% formic acid (phase B). The flow rate was set at 0.450 mL/min. […]

[2] = set-up: method as in PMID 29969512; conditions: cited from earlier work
[3] = set-up: method as in PMID 28114854; conditions: cited from earlier work
[4] = set-up: method as in PMID 28534405; conditions: Sprague Dawley rats, 100 mg/kg PO; cited from earlier work
[5] = female, ip, female mice, DHM 50 mg/kg IP
[6] = female, ip, female mice, DHM 50 mg/kg IP, mean ± SEM
[7] = female, po, female mice, DHM 50 mg/kg PO
[8] = female, po, female mice, DHM 50 mg/kg PO, mean ± SEM
[9] = male, ip, male mice, DHM 50 mg/kg IP
[10] = male, ip, male mice, DHM 50 mg/kg IP, mean ± SEM
[11] = male, po, male mice, DHM 50 mg/kg PO
[12] = male, po, male mice, DHM 50 mg/kg PO, mean ± SEM

Work on O=C1c2c(O)cc(O)cc2O[C@H](c2cc(O)c(O)c(O)c2)[C@H]1O [DHM, Dihydromyricetin] yielded a Tmax ([1]; female mice, DHM 50 mg/kg IP) of 15 min, a half-life ([1]; female mice, DHM 50 mg/kg IP) of 45.6 min and a Tmax ([1]; female mice, DHM 50 mg/kg PO) of 15 min. The half-life ([1]; female mice, DHM 50 mg/kg PO) was 110 min, the Tmax ([1]; male mice, DHM 50 mg/kg IP) was 15 min and the half-life ([1]; male mice, DHM 50 mg/kg IP) was 95.4 min. For the same molecule, the Tmax ([1]; male mice, DHM 50 mg/kg PO) was 15 min, the half-life ([1]; male mice, DHM 50 mg/kg PO) was 115 min and the “PO exposure levels in male mice relative to female mice” value ([1]; DHM 50 mg/kg PO) was 3.5 times. For the same molecule, the “IP AUC0→24 relative to PO AUC0→24” value ([1]; female mice) was 23.8 fold, the “Serum AUC0→24” value ([1]; female mice, DHM 50 mg/kg PO) was 0.7 µM·h and the “IP AUC0→24 relative to PO AUC0→24” value ([1]; female mice, listed as dihydromyricetin) was 7.2 fold. It also gave a Cmax [1, 5] of 23.8 µM, a Cmax [1, 6] of 23.8 µM and an AUC(0-t) [1, 6] of 17.4 µM·h. For the same molecule, the AUC(0-t) [1, 5] was 17.3 µM·h, the Cmax [1, 7] was 0.62 µM and the Cmax [1, 8] was 0.623 ± 0.159 µM. For the same molecule, the AUC(0-t) [1, 8] was 0.728 ± 0.461 µM·h, the AUC(0-t) [1, 7] was 0.728 µM·h and the “IP AUC0→24 relative to PO AUC0→24” value ([1]; male mice) was 7.2 fold. The “Serum AUC0→24” value ([1]; male mice, DHM 50 mg/kg PO) was 2.5 µM·h, the “IP AUC0→24 relative to PO AUC0→24” value ([1]; male mice, listed as dihydromyricetin) was 23.8 fold and the Cmax [1, 9] was 38.3 µM. The Cmax [1, 10] was 38.3 µM, the AUC(0-t) [1, 10] was 18.1 µM·h and the AUC(0-t) [1, 9] was 18.1 µM·h. It also gave a Cmax [1, 11] of 1.9 µM, a Cmax [1, 12] of 1.89 ± 0.59 µM and an AUC(0-t) [1, 12] of 2.51 ± 0.988 µM·h. The AUC(0-t) [1, 11] was 2.51 µM·h, the cellular permeability [2] was 1.84 ×10⁻⁶ cm/s and the “stability in acidic environments” value ([3]; acidic environments, similar to upper GI tract) was “stable”. For the same molecule, the “stability in solutions with pH > 6” value ([3]; pH > 6) was “unstable” and the “time DHM detected in brain tissue post administration” value [4] was “up to 12 h”.
